The values that follow come from patent US5616606A, “Oligopeptide antiretroviral agents” (priority 1995, dated 1997).

As usually defined, the IC50 is the concentration at which inhibition is half-maximal. Broadly, the EC50 is the concentration giving half of the maximal effect. A lower EC50 goes with greater potency.

“And” between values parts separate entries of the source, which are not always exact repeats. Equal values may be shown once. Read-outs that look alike come from different tables or passages of the source.

For one series, the system named is vaccinia virus. It counts as cell-based. As to conditions: against vaccinia virus; hydrochloride.
The target in series [1] is Moloney Leukemia Virus reverse transcriptase (Moloney murine leukemia virus, UniProt P03355). Description: inhibition of MLV associated reverse transcriptase activity. Particulars: for ID50 (average ± SD): 50% inhibitory dose after 120 min incubation.
Series [2] deals with T4 lymphocytes (CEM cell line). Description: NCI anti-HIV screen, toxicity control in uninfected cells. It counts as cell-based. Particulars: Table X.
Another series concerns poly(dA-dT). Description: ethidium displacement assay, poly(dA-dT). As to conditions: relative to ethidium 9.5 × 10^6 M^-1, average of repeat measurements.
A further series has as its system HIV-1. Particulars: for EC50: Table XI; for INFECTED RESPONSE % of Control: Table X.
Series [3] deals with HBV. As to conditions: 9 μM; relative to average levels in untreated cells; typically observed (Korba and Milman, 1991); cited from earlier work.
A further series deals with 2.2.15 cells. Description: toxicity analysis, neutral red dye uptake in 2.2.15 cells. As to conditions: triplicate, ± standard deviation.
Series [4] deals with HBV. Description: inhibition of HBV DNA replication in 2.2.15 cell cultures. As to conditions: for INT[…] DNA MONO. / INT[…] DNA RI: 24 hours following the 9th day of treatment; for INT[…] DNA MONO. / INT[…] DNA RI / HBV VIRION DNA DAY 0 / HBV VIRION DNA DAY 6 / HBV VIRION DNA DAY 9: single well. It counts as cell-based.
Series [5] has as its system Moloney murine leukemia virus (MLV). Description: anti-Moloney murine leukemia virus (MLV) plaque test. As to conditions: anti-MLV plaque count. Type of series: cell-based.
The subject of another series is SC-1 cells. In words: toxicity TD50 reported with the anti-MLV test. Particulars: Table IV.

“1-Methyl-4-(1-methyl-4-trimethylammoniumacetamidopyrrole-2-carboxamido)pyr role-2-carboxyamidopriopionamidine chloride hydrochloride [Example 3(A)]” showed a minimum inhibitory concentration with vaccinia virus of 20 µg/mL.

`O=C(O)C1=CC(=C(c2ccc(O)c(C(=O)O)c2)c2ccc(O)c(C(=O)O)c2)C=CC1=O` [Aurintricarboxylic acid, reference compound] showed an IC50 in series [1] of 3.36 µM.

Take `Cl.Cl.Cn1cc(NC(=O)c2cc(NC(=O)[C@@H]3CC[C@H]3C(=O)Nc3cc(C(=O)Nc4cc(C(=O)NCCC(=N)N)n(C)c4)n(C)c3)cn2C)cc1C(=O)NCCC(=N)N` (relative stereo) [Compound 25b, N,N'-di[1-methyl-2-[1-methyl-2-carboxamido(3-propionamidine)-4-pyrrole]-4-pyrrolyl] trans 1,2-cyclobutaneamide dihydrochloride]: the “[…] % of Control” value in series [2] (dose 2.92 × 10^-4 Molar) is recorded as 0.54 % of Control; in series [2] (dose 2.93 × 10^-5 Molar) it was 174.62 % of Control; in series [2] (dose 2.93 × 10^-6 Molar) it was 116.36 % of Control; in series [2] (dose 2.94 × 10^-7 Molar), 90.95 % of Control; in series [2] (dose 9.25 × 10^-4 Molar), 8.29 % of Control; in series [2] (dose 9.27 × 10^-5 Molar) it was 101.95 % of Control. Also, the “[…] % of Control” value is given as 102.41 % of Control in series [2] (dose 9.29 × 10^-7 Molar) and 145.18 % of Control in series [2] (dose 9.38 × 10^-6 Molar). In addition, the “ID50 (average ± SD)” value in [1] was 21.8 ± 9.2 µg/mL. This molecule also displayed a Kapp in the series on poly(dA-dT) of 5.6e+07 M⁻¹. The molecule further displayed an EC50 with HIV-1 of 0.42 µM. Also, the “INFECTED RESPONSE % of Control” value with HIV-1 (dose 2.92 × 10^-4 Molar) is 0.04 % of Control; with HIV-1 (dose 2.93 × 10^-5 Molar), 110.05 % of Control; with HIV-1 (dose 2.93 × 10^-6 Molar), 77.00 % of Control; in the series on HIV-1 (dose 2.94 × 10^-7 Molar) it was 42.92 % of Control; with HIV-1 (dose 9.25 × 10^-4 Molar) it was 9.72 % of Control; in the series on HIV-1 (dose 9.27 × 10^-5 Molar), 90.52 % of Control. For the same molecule, the results for the “INFECTED RESPONSE % of Control” value with HIV-1 (dose 9.29 × 10^-7 Molar) and with HIV-1 (dose 9.38 × 10^-6 Molar) were 59.07 % of Control and 80.26 % of Control, respectively.

In the case of “1-Methyl-4-(1-methyl-4-trimethylammoniumacetamidopyrrole-2-carboxamido)pyr role-2-carboxyamidopriopionamidine chloride hydrochloride [3(B)]”, the minimum inhibitory concentration in the series with vaccinia virus was determined as 300 µg/mL.

Take `Nc1ccn([C@H]2CC[C@@H](CO)O2)c(=O)n1` [DDC, 2,3'-dideoxycytosine, reference compound]: the “depression of HBV RI” value in the series with HBV [3] is on record as 90%. Besides, the “NEUTRAL RED DYE UPTAKE” value amounted to 99 ± 1 % OF CONTROL with 2.2.15 cells (10 μg/ml), 100 ± 1 % OF CONTROL in the series with 2.2.15 cells (30 μg/ml), 89 ± 3 % OF CONTROL with 2.2.15 cells (100 μg/ml) and 17 ± 2 % OF CONTROL with 2.2.15 cells (300 μg/ml). Further, the “INT[…] DNA MONO.” value with HBV [4] (10 μM, listed as 2',3'-ddC) was 2.5 pg/μg CELL DNA and 2.0 pg/μg CELL DNA; with HBV [4] (50 μM, listed as 2',3'-ddC), 1.2 pg/μg CELL DNA and 1.4 pg/μg CELL DNA and 1.8 pg/μg CELL DNA and 1.7 pg/μg CELL DNA. Further, the “INT[…] DNA RI” value in the series with HBV [4] (10 μM, listed as 2',3'-ddC) is 9 pg/μg CELL DNA and 7 pg/μg CELL DNA and 8 pg/μg CELL DNA and 5 pg/μg CELL DNA; in the series with HBV [4] (50 μM, listed as 2',3'-ddC), 2 pg/μg CELL DNA and 1 pg/μg CELL DNA. Also, the “HBV VIRION DNA DAY 0” value is 63 pg/ml CULTURE MEDIUM and 66 pg/ml CULTURE MEDIUM and 78 pg/ml CULTURE MEDIUM and 68 pg/ml CULTURE MEDIUM in the series with HBV [4] (10 μM, listed as 2',3'-ddC); 57 pg/ml CULTURE MEDIUM and 51 pg/ml CULTURE MEDIUM and 58 pg/ml CULTURE MEDIUM and 59 pg/ml CULTURE MEDIUM with HBV [4] (50 μM, listed as 2',3'-ddC). Further, the “HBV VIRION DNA DAY 6” value in the series with HBV [4] (10 μM, listed as 2',3'-ddC) was 43 pg/ml CULTURE MEDIUM and 47 pg/ml CULTURE MEDIUM and 54 pg/ml CULTURE MEDIUM and 45 pg/ml CULTURE MEDIUM; in the series with HBV [4] (50 μM, listed as 2',3'-ddC), 26 pg/ml CULTURE MEDIUM and 28 pg/ml CULTURE MEDIUM and 30 pg/ml CULTURE MEDIUM and 20 pg/ml CULTURE MEDIUM. The “HBV VIRION DNA DAY 9” value in the series with HBV [4] (10 μM, listed as 2',3'-ddC) is 7 pg/ml CULTURE MEDIUM and 5 pg/ml CULTURE MEDIUM and 6 pg/ml CULTURE MEDIUM and 8 pg/ml CULTURE MEDIUM; in the series on HBV [4] (50 μM, zero = undetectable, cutoff 0.1 pg/ml) it was 0 pg/ml CULTURE MEDIUM. Moreover, in the series on HBV [4] (tested at 50 and 10 μM, compared with 2',3'-ddC), the “effect on HBV replication (in words)” value was “significant depressions of HBV DNA replication”. Further, the “Activity, MIC50” value in series [5] amounted to 0.74 µg/mL. For the same molecule, in the series on SC-1 cells, the “Toxicity, TD50” value is > 100.00 ug/mL^-1.

For `Cl.Cl.Cn1cc(NC(=O)c2cc(NC(=O)[C@@H]3C[C@H]3C(=O)Nc3cc(C(=O)Nc4cc(C(=O)NCCC(=N)N)n(C)c4)n(C)c3)cn2C)cc1C(=O)NCCC(=N)N` [Compound 23b, N,N'-Di(1-methyl-2-[1-methyl-2-carboxamide-(3-proprionamidine)-4-pyrrole]-4-pyrrolyl)transcylcopropyldicarboxamide dihydrochloride], the “ID50 (average ± SD)” value in series [1] is 7.0 ± 3.6 µg/mL. In addition, the Kapp in the series with poly(dA-dT) came to 5.3e+07 M⁻¹. Further, the EC50 in the series on HIV-1 amounted to 3.44 µM. The “Anti-HIV-1 Activity (National Cancer Institute Designation)” value in the series with HIV-1 (inactive, moderate or active) is listed as “Moderate”.
